Measurements reported in ChEMBL document CHEMBL1201862, “PubChem BioAssay data set” (2004).
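These data come from cells grown in 96-well plates and exposed to compound for 48 hours at five concentrations. GI50 marks 50% less growth.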 Calls of active or inactive are those of the source. Rule as the data show it: active = GI50 up to about 1.1 µM and inactive = higher.

How the values were obtained:
Test in all cases: DTP human tumour cell line panel, 48 h
LOX IMVI = tested on: LOX IMVI
HL-60 = tested on: HL-60
EKVX = tested on: EKVX
SK-MEL-2 = tested on: SK-MEL-2
KM12 = tested on: KM12
HOP-18 = tested on: HOP-18
SNB-19 = tested on: SNB-19
NCI-H226 = tested on: NCI-H226
OVCAR-3 = tested on: OVCAR-3
SK-MEL-5 = tested on: SK-MEL-5
UO-31 = tested on: UO-31
CCRF-CEM = tested on: CCRF-CEM
M19-MEL = tested on: M19-MEL
LXFL 529 = tested on: LXFL 529
HT-29 = tested on: HT-29
HCT-116 = tested on: HCT-116
SW-620 = tested on: SW-620
UACC-257 = tested on: UACC-257
NCI-H522 = tested on: NCI-H522
IGROV-1 = tested on: IGROV-1
RPMI-8226 = tested on: RPMI-8226
COLO 205 = tested on: COLO 205
A498 = tested on: A498
KM-20L2 = tested on: KM-20L2
DMS-273 = tested on: DMS-273
HOP-62 = tested on: HOP-62
UACC-62 = tested on: UACC-62
SF-539 = tested on: SF-539
DMS-114 = tested on: DMS-114
SNB-78 = tested on: SNB-78
Malme-3M = tested on: Malme-3M
OVCAR-5 = tested on: OVCAR-5
ACHN = tested on: ACHN
DLD-1 = tested on: DLD-1
U-251 = tested on: U-251
TK-10 = tested on: TK-10
XF498 = tested on: XF498
SK-MEL-28 = tested on: SK-MEL-28
786-0 = tested on: 786-0
SNB-75 = tested on: SNB-75
MOLT-4 = tested on: MOLT-4
SR = tested on: SR
HCT-15 = tested on: HCT-15
HCC 2998 = tested on: HCC 2998
OVCAR-4 = tested on: OVCAR-4
NCI-H23 = tested on: NCI-H23
A549 = tested on: A549
M14 = tested on: M14
SF-295 = tested on: SF-295
NCI-H460 = tested on: NCI-H460
OVCAR-8 = tested on: OVCAR-8
SN12C = tested on: SN12C
K562 = tested on: K562
SF-268 = tested on: SF-268
SK-OV-3 = tested on: SK-OV-3
CAKI-1 = tested on: CAKI-1
MCF7 = tested on: MCF7
NCI/ADR-RES = tested on: NCI/ADR-RES
RXF 393 = tested on: RXF 393

## CC1=C[P+](Cc2ccccc2)(c2ccccc2)CC1 (stereo not given)
LOX IMVI
  GI50: 90.4 µM (inactive)
HL-60
  GI50: 34 µM (inactive)
EKVX
  GI50: 54.6 µM (inactive)
SK-MEL-2
  GI50: > 100 µM (inactive)
KM12
  GI50: > 100 µM (inactive)
HOP-18
  GI50: > 100 µM (inactive)
SNB-19
  GI50: > 100 µM (inactive)
NCI-H226
  GI50: > 100 µM (inactive)
OVCAR-3
  GI50: 44.3 µM (inactive)
SK-MEL-5
  GI50: 21.5 µM (inactive)
UO-31
  GI50: > 100 µM (inactive)
CCRF-CEM
  GI50: > 100 µM (inactive)
M19-MEL
  GI50: 46.8 µM (inactive)
LXFL 529
  GI50: 45.4 µM (inactive)
HT-29
  GI50: 66.4 µM (inactive)
HCT-116
  GI50: > 100 µM (inactive)
SW-620
  GI50: > 100 µM (inactive)
UACC-257
  GI50: 41.9 µM (inactive)
NCI-H522
  GI50: 41.7 µM (inactive)
IGROV-1
  GI50: 81.1 µM (inactive)
RPMI-8226
  GI50: 25.7 µM (inactive)
COLO 205
  GI50: 31.6 µM (inactive)
A498
  GI50: > 100 µM (inactive)
KM-20L2
  GI50: 75.2 µM (inactive)
DMS-273
  GI50: 78 µM (inactive)
HOP-62
  GI50: > 100 µM (inactive)
UACC-62
  GI50: 63.7 µM (inactive)
SF-539
  GI50: > 100 µM (inactive)
DMS-114
  GI50: 46.9 µM (inactive)

## CCN(CC)CC1CCCCCCCCCCC1=O (stereo not given)
LOX IMVI
  GI50: > 100 µM (inactive)
SNB-78
  GI50: > 100 µM (inactive)
Malme-3M
  GI50: > 100 µM (inactive)
OVCAR-5
  GI50: > 100 µM (inactive)
ACHN
  GI50: > 100 µM (inactive)
HL-60
  GI50: > 100 µM (inactive)
DLD-1
  GI50: > 100 µM (inactive)
EKVX
  GI50: > 100 µM (inactive)
SK-MEL-2
  GI50: > 100 µM (inactive)
KM12
  GI50: > 100 µM (inactive)
SNB-19
  GI50: > 100 µM (inactive)
NCI-H226
  GI50: > 100 µM (inactive)
OVCAR-3
  GI50: > 100 µM (inactive)
U-251
  GI50: > 100 µM (inactive)
TK-10
  GI50: > 100 µM (inactive)
XF498
  GI50: > 100 µM (inactive)
SK-MEL-5
  GI50: > 100 µM (inactive)
UO-31
  GI50: > 100 µM (inactive)
SK-MEL-28
  GI50: > 100 µM (inactive)
786-0
  GI50: > 100 µM (inactive)
CCRF-CEM
  GI50: > 100 µM (inactive)
M19-MEL
  GI50: > 100 µM (inactive)
SNB-75
  GI50: 42.3 µM (inactive)
LXFL 529
  GI50: > 100 µM (inactive)
HT-29
  GI50: > 100 µM (inactive)
MOLT-4
  GI50: > 100 µM (inactive)
HCT-116
  GI50: > 100 µM (inactive)
SW-620
  GI50: > 100 µM (inactive)
UACC-257
  GI50: > 100 µM (inactive)
NCI-H522
  GI50: > 100 µM (inactive)
SR
  GI50: > 100 µM (inactive)
IGROV-1
  GI50: > 100 µM (inactive)
HCT-15
  GI50: > 100 µM
HCC 2998
  GI50: > 100 µM (inactive)
OVCAR-4
  GI50: > 100 µM (inactive)
RPMI-8226
  GI50: > 100 µM (inactive)
NCI-H23
  GI50: > 100 µM (inactive)
COLO 205
  GI50: > 100 µM (inactive)
A498
  GI50: > 100 µM (inactive)
KM-20L2
  GI50: > 100 µM (inactive)
DMS-273
  GI50: > 100 µM (inactive)
A549
  GI50: > 100 µM (inactive)
M14
  GI50: > 100 µM (inactive)
SF-295
  GI50: > 100 µM (inactive)
NCI-H460
  GI50: > 100 µM (inactive)
OVCAR-8
  GI50: > 100 µM (inactive)
HOP-62
  GI50: > 100 µM (inactive)
UACC-62
  GI50: > 100 µM (inactive)
SN12C
  GI50: > 100 µM (inactive)
K562
  GI50: > 100 µM (inactive)
DMS-114
  GI50: > 100 µM (inactive)
SF-268
  GI50: > 100 µM (inactive)

## Nc1nc(O)c2ncn(C3OC(CO)C(O)C3O)c2n1 (stereo not given)
LOX IMVI
  GI50: 52.5 µM (inactive)
SK-OV-3
  GI50: 95.7 µM (inactive)
SNB-78
  GI50: 95.3 µM (inactive)
OVCAR-5
  GI50: 111 µM (inactive)
HL-60
  GI50: 37.6 µM (inactive)
DLD-1
  GI50: 65.3 µM (inactive)
EKVX
  GI50: 10.2 µM (inactive)
SK-MEL-2
  GI50: 71.1 µM (inactive)
KM12
  GI50: 80 µM (inactive)
HOP-18
  GI50: 49.8 µM (inactive)
NCI-H226
  GI50: 72.6 µM (inactive)
CAKI-1
  GI50: 77.1 µM (inactive)
OVCAR-3
  GI50: 23.2 µM (inactive)
U-251
  GI50: 16.1 µM (inactive)
SK-MEL-5
  GI50: 53.6 µM (inactive)
UO-31
  GI50: 63.7 µM (inactive)
SK-MEL-28
  GI50: 90.8 µM (inactive)
CCRF-CEM
  GI50: 23.9 µM (inactive)
M19-MEL
  GI50: 16 µM (inactive)
SNB-75
  GI50: 15.4 µM (inactive)
HT-29
  GI50: 10.9 µM (inactive)
MOLT-4
  GI50: 48.2 µM (inactive)
HCT-116
  GI50: 68.1 µM (inactive)
SW-620
  GI50: 76.7 µM (inactive)
MCF7
  GI50: 33.8 µM (inactive)
NCI-H522
  GI50: 41.9 µM (inactive)
IGROV-1
  GI50: > 77.4 µM (inactive)
HCC 2998
  GI50: 17.1 µM (inactive)
OVCAR-4
  GI50: 15.9 µM (inactive)
NCI-H23
  GI50: 17.4 µM (inactive)
COLO 205
  GI50: 57 µM (inactive)
NCI/ADR-RES
  GI50: 18.4 µM (inactive)
A498
  GI50: 3.81 µM (inactive)
KM-20L2
  GI50: 16.8 µM (inactive)
DMS-273
  GI50: 58.7 µM (inactive)
SF-295
  GI50: 71.6 µM (inactive)
RXF 393
  GI50: 6.84 µM (inactive)
HOP-62
  GI50: 8.63 µM (inactive)
UACC-62
  GI50: 13.3 µM (inactive)
SN12C
  GI50: 79.8 µM (inactive)
K562
  GI50: 81.7 µM (inactive)
SF-539
  GI50: 13.8 µM (inactive)
DMS-114
  GI50: 6.15 µM (inactive)
SF-268
  GI50: 74.8 µM (inactive)
